Results on 10 compounds are retold here after US20190127359A1, “Compounds & Methods for the Enhanced Degradation of Targeted Proteins & Other Polypeptides by an E3 Ubiquitin Ligase” (YALE UNIVERSITY, priority 2012, published 2019).

SMILES strings stand for the structures. Read-outs that look alike come from different tables or passages of the source.

Experiment [1] concerns the target T1, VHL (Homo sapiens, UniProt P40337). Kind of experiment: WaterLOGSY and saturation transfer difference (STD) NMR binding. The following applies: FIG. 2.
For experiment [2], the target named is T1, VHL. In words: Fluorescence polarization competition assay (HIF-1α peptide FP displacement). In general terms: Polarisation of emitted light reports the rotation of a fluorescent probe.

With `O=C(O)[C@@H]1C[C@@H](O)CN1` [L-Hyp], the “binding to VHL by WaterLOGSY NMR spectroscopy” value on VHL [1] is on record as “not”.
A word on the IC50: it is the midpoint of a concentration-inhibition curve. For `O=C(NCc1ccc(Cl)cc1)[C@@H]1C[C@@H](O)CN1C(=O)c1cccc2cccnc12` [VL129], the IC50 on VHL [2] (IC50 (μM) 1% DMSO, 1% DMSO) is 493 µM; on VHL [2] (IC50 (μM) 10% DMSO, 10% DMSO), 760 µM.
As for `Cc1cc(CC(=O)N2C[C@H](O)C[C@H]2C(=O)NCc2cccc(Cl)c2)on1` [VL004, (2S,4R)—N-(3-chlorobenzyl)-4-hydroxy-1-(2-(3-methylisoxazol-5-yl)acetyl)pyrrolidine-2-carboxamide], the half-maximal inhibitory concentration (IC50) at VHL [2] (IC50 (μM) 10% DMSO, 10% DMSO) turned out to be 123 µM; on VHL [2] (read-out: IC50 (μM) 1% DMSO, 1% DMSO), 117 µM.
As to `Cc1cc(CC(=O)N2C[C@H](O)C[C@H]2C(=O)Nc2ccc(Br)cc2F)on1` [VL011], the half-maximal inhibitory concentration (IC50) on VHL [2] (IC50 (μM) 10% DMSO, 10% DMSO) is > 1000 µM.
Regarding `Cc1n[nH]cc1C(=O)N1C[C@H](O)C[C@H]1C(=O)NCc1ccc(Cl)cc1` [VL102], the 50% inhibitory concentration (IC50) on VHL [2] (IC50 (μM) 10% DMSO, 10% DMSO) was 64.5 µM.
Consider `Cc1cc(CC(=O)N2C[C@H](O)C[C@H]2C(=O)NCc2ccc(-c3cncs3)cc2)on1` [VL155], for which the half-maximal inhibitory concentration (IC50) at VHL [2] (IC50 (μM) 1% DMSO, 1% DMSO) amounted to 14 µM; at VHL [2] (IC50 (μM) 10% DMSO, 10% DMSO), 17.4 µM.
As for `O=C(NCc1ccc(Cl)cc1)[C@@H]1C[C@@H](O)CN1C(=O)c1cncc(Br)c1` [VL100], at VHL [2] (IC50 (μM) 10% DMSO, 10% DMSO), the IC50 is 63.6 µM.
Regarding `O=C(NCc1ccc(Cl)cc1)[C@@H]1C[C@@H](O)CN1C(=O)c1ccccc1-c1cnco1` [VL121], the IC50 on VHL [2] (IC50 (μM) 1% DMSO, 1% DMSO) was > 1000 µM; on VHL [2] (IC50 (μM) 10% DMSO, 10% DMSO), > 1000 µM.
With `CS(=O)(=O)N1C[C@H](O)C[C@H]1C(=O)NCc1cccc(Cl)c1` [VL007], the “IC50 (μM) 10% DMSO” value on VHL [2] (10% DMSO) is on record as “Inactive”.
Take `Cc1cc(CC(=O)N2C[C@H](O)C[C@H]2C(=O)NCc2ccc(S(N)(=O)=O)cc2)on1` [VL087]: the concentration for half-maximal inhibition (IC50) at VHL [2] (IC50 (μM) 10% DMSO, 10% DMSO) came to 103 µM.
